The test system of assay [1] is MAP17 gene. Briefly: MAP17 gene expression in human keratinocytes treated with ginsenoside-Re (Q-RT-PCR). The format is cell-based. Particulars: ginsenoside-Re 10 uM, 24 hours, vs untreated control, FIG. 5 (A). On the procedure:
(§1) Various human keratinocytes were treated with a variety of materials, and change in expression of MAP17 and filaggrin genes were monitored. It was investigated whether ginsenoside-Re, a kind of ginsenoid derived from the fruit of ginseng, regulates the expression of MAP17 and filaggrin genes. Human keratinocytes were purchased from Lonza, Inc. and cultured in KBM-2 medium (Clonetics CC-3103) in a CO2 incubator under a condition of 37° C. and 5% CO2.
(§2) The cultured human keratinocytes without any treatment were used as a control group. For a test group, the human keratinocytes were further cultured for 24 hours after adding ginsenoside-Re (10 uM). Ginsenoside-Re was purchased from Wako (Kanagawa, Japan) and prepared into a solution according to the manufacturer's instructions. […]
(§3) The isolated RNA was purified once more using Qiagen RNeasy kit (Qiagen, Valencia, Calif.) and RNA quality and concentration were verified using Agilent 2100 BioAnalyzer (Agilent Technologies, Santa Clara, Calif., USA). cDNA was synthesized from the isolated RNA using Superscript RT II kit (Invitrogen, Carlsbad, Calif.), and change in gene expression was quantitatively analyzed by means of Q-RT-PCR. Change in the expression pattern of MAP17 (Hs00173779_m1) and filaggrin (Hs00856927_g1) was evaluated using TaqMan® gene expression assay kit (Applied Biosystems, Foster City, Calif.) and is shown in FIG. 5.

Assay [2] deals with filaggrin gene. In words: filaggrin gene expression in human keratinocytes treated with ginsenoside-Re (Q-RT-PCR). The format is cell-based. The conditions noted are these: ginsenoside-Re 10 uM, 24 hours, vs untreated control, FIG. 5 (B). As to the method:
as §1, §2, §3

This is an account of results in US20110212455A1, “METHOD OF SCREENING MATERIAL FOR IMPROVING SKIN FUNCTIONS” (AMOREPACIFIC CORPORATION, priority 2008, published 2011).

On to `CC(C)=CCC[C@](C)(O[C@@H]1O[C@H](CO)[C@@H](O)[C@H](O)[C@H]1O)[C@H]1CC[C@]2(C)[C@@H]1[C@H](O)C[C@@H]1[C@@]3(C)CC[C@H](O)C(C)(C)[C@@H]3[C@@H](O[C@@H]3O[C@H](CO)[C@@H](O)[C@H](O)[C@H]3O[C@@H]3O[C@@H](C)[C@H](O)[C@@H](O)[C@H]3O)C[C@]12C` [ginsenoside-Re], for which, in assay [1], the “expression of the MAP17 gene in human keratinocytes” value is “markedly decreases”. For the same compound, the “expression of the filaggrin gene in human keratinocytes” value in assay [2] is recorded as “increases”.
